Legend:
[1] = tested on: tonic–clonic seizures in mice; conditions: i.p.; cited from earlier work
[2] = tested on: PTZ-induced clonic seizures in mice; conditions: i.p.; cited from earlier work
[3] = tested on: 6-Hz-induced psychomotor seizures in mice; conditions: i.p.; cited from earlier work
[4] = tested on: hepatoma HepG2; assay: Hepatotoxicity, HepG2 cell viability; type: cell-based, human; conditions: 100× lower concentration than 100 µM
Source text: The assays and protocols used for evaluating the KA-232 ADME-Tox parameters were similar to those described previously for compound KA-11 [6].
Figure 9 The effect of KA-232 and the reference drug ketoconazole (KE) on CYP3A4 activity (A). The effect of KA-232 and the reference drug quinidine (QD) on CYP2D6 activity (B). The effect of KA-232 and the reference cytostatic drug doxorubicin (DX) on the HepG2 cell line (C) and the SH-SY5Y cell line (D) viability. Statistical significance (* p < 0.05, **** p < 0.0001) was analyzed by Graph Pad Prism 8 software using one-way ANOVA and Bonferroni’s Multiple Comparison Post Test.

CCCC(CCC)C(=O)O [VPA, valproic acid, reference compound]
ED50 MES ± SD [1]: 355.2 ± 108.1 mg/kg | TI (TD50/ED50), MES [1]: 1.21 | ED50 PTZ ± SD [2]: 176.2 ± 81.8 mg/kg | TI (TD50/ED50), PTZ [2]: 2.44 | ED50 6 Hz ± SD [3]: 110.5 ± 42.8 mg/kg | TI (TD50/ED50), 6 Hz [3]: 3.90

COc1cccc2c1C(=O)c1c(O)c3c(c(O)c1C2=O)C[C@@](O)(C(=O)CO)C[C@@H]3O[C@H]1C[C@H](N)[C@H](O)[C@H](C)O1 [doxorubicin, reference compound]
HepG2 cell viability [4]: 21 % of control
